Experiments:
cGAS = test: cGAMP quantification by ELISA in CD4+ T cells; format: cell-based, human; conditions: CD4+ T cells expressing RELA K5R or IRF3, FIG. 5B
Protocol: For cGAS stimulation, 2 μg of control GFP plasmid DNA (provided in the kit) was nucelofected in 2 million T cells 72 hours post TCR stimulation (Lonza #VPA-1002) using the programme T020 (Lonza #Nucleofector 2b). Cells were harvested at 4 hours and 24 hours after nucleofection for analysis.
Cell pellets were stored at −80° C. until extraction. Frozen pellets were fixed in 80% cold methanol and subjected to 5 freeze-thaw cycles in liquid nitrogen. Samples were then centrifuged at 16,000 g for 20 minutes at 4° C. The supernatants were further subjected to drying in Savant DNA Speed Vac DNA 110 at 65° C. for 2 hours. The pellets were resuspended in 100 μl RNase- and DNase-free water and cGAMP was quantified by ELISA as per manufacturers protocol (Interchim #501700). cGAMP quantity was normalized to cell numbers and represented as pg/million cells.

CD4+ T cells = test: IFN-I/III quantification (LEGENDplex) in CD4+ T cells, baseline or after STING stimulation; format: cell-based, human

Molecule | cellular cGAMP (cGAS) | expression of IFNλ1 and IRF7 (CD4+ T cells; RELA K5R expressed in CD4+ T cells, no stimulation) | IFNλ1 after cGAMP stimulation (CD4+ T cells; lentivector overexpression in CD4+ T cells, FIG. 2B, 2D, 2F) | IFNα2 in response to cGAMP (CD4+ T cells; lentivector overexpression in CD4+ T cells, FIG. 2D, 2F) | baseline IFNλ1 expression (CD4+ T cells; lentivector overexpression in CD4+ T cells, no cGAMP, FIG. 2D, 2F) | IFNα2 response to cGAMP (CD4+ T cells; IRF3 over-expression alone in CD4+ T cells, FIG. 3B) | IFNβ (CD4+ T cells; IRF3 over-expression alone in CD4+ T cells, cGAMP, FIG. 3B)
RELA K5R: RELA mutant converting five lysine residues (K122, K123, K310, K314, K315) to arginine, expressed from lentivector | no significant increase | sufficient to induce | augmented in response to cGAMP | detectable | increased baseline IFNλ1 expression | – | –
IRF3: interferon Regulatory Factor 3, over-expressed from lentivector (protein, UniProt Q14653 1-427, looked up) Interferon regulatory factor 3: MGTPKPRILPWLVSQLDLGQLEGVAWVNKSRTRFRIPWKHGLRQDAQQEDFGIFQAWAEATGAYVPGRDKPDLPTWKRNFRSALNRKEGLRLAEDRSKDPHDPHKIYEFVNSGVGDFSQPDTSPDTNGGGSTSDTQEDILDELLGNMVLAPLPDPGPPSLAVAPEPCPQPLRSPSLDNPTPFPNLGPSENPLKRLLVPGEEWEFEVTAFYRGRQVFQQTISCPEGLRLVGSEVGDRTLPGWPVTLPDPGMSLTDRGVMSYVRHVLSCLGGGLALWRAGQWLWAQRLGHCHTYWAVSEELLPNSGHGPDGEVPKDKEGGVFDLGPFIVDLITFTEGSGRSPRYALWFCVGESWPQDQPWTKRLVMVKVVPTCLRALVEMARVGGASSLENTVDLHISNSHPLSLTSDQYKAYLQDLVEGMDFQGPGES | no significant increase | – | – | – | – | only to a small extent | remained undetectable

From US20250213614A1, “Modified RELA Protein for Inducing Interferon Expression and Engineered Immune Cells with Improved Interferon Expression” (Institut Curie, priority 2022, published 2025)
